Laboratory results published in patent US10376520B2, “Methods for the treatment of cardiovascular disorders” (Galapagos NV, priority 2015, dated 2019).

System: RA patients
Experiment: [HDL] determination, Study 1 (RA patients, add-on to MTX)
Format: in vivo, human
Protocol: Double-blind, placebo-controlled add on study in subjects with moderately to severely active RA who have an inadequate response to methotrexate (MTX) (oral or parenteral).
595 subjects randomized to one of 6 dose regimens of Compound 1 (dosed as a [Compound 1:HCl:3H2O]) (3 dose levels administered either once or twice daily) or placebo on top of each subject's stable dose of MTX.
Compound 1 (dosed as a [Compound 1:HCl:3H2O]) is dosed for twelve weeks once daily (q.d.) (50 mg, 100 mg or 200 mg) or twice daily (b.i.d.) (25 mg, 50 mg or 100 mg); or placebo.
At Week 12, the subjects on placebo who have not achieved 20% improvement in swollen joint count (SJC66) and tender joint count (TJC68) are re-randomized automatically to receive Compound 1 (dosed as a [Compound 1:HCl:3H2O]) either at 100 mg q.d. or 50 mg b.i.d. doses in a blinded fashion; subjects on 50 mg q.d. who have not achieved 20% improvement in SJC66 and TJC68 will be assigned to 100 mg q.d. and subjects on 25 mg b.i.d. that have not achieved a 20% improvement in SJC66 and TJC68 will be assigned to 50 mg b.i.d. Subjects who switch treatment at week 12 are handled as if they discontinued at week 12 for the purpose of statistical analysis, whereas subjects in the other groups will maintain their randomized treatment until Week 24.
This assay relies on a homogeneous enzymatic colorimetric test. In the presence of magnesium ions, dextran sulfate selectively forms water-soluble complexes with LDL, VLDL and chylomicrons which are resistant to PEG-modified enzymes.
The cholesterol concentration of [HDL]-cholesterol is determined enzymatically by cholesterol esterase and cholesterol oxidase coupled with PEG to the amino groups (approx. 40%).
In the presence of peroxidase, the hydrogen peroxide generated reacts with 4-amino-antipyrine and Sodium N-(2-hydroxy-3-sulfopropyl)-3,5-dimethoxyaniline (HSDA) to form a purple-blue dye. The color intensity of this dye is directly proportional to the cholesterol concentration and is measured photometrically.
Human serum and plasma samples [HDL] determination was done on a Roche/Hitachi Cobas c 701/702 system which automatically calculate the analyte concentration of each sample. Samples containing precipitates are centrifuged before performing the assay.

[1] = 2 x 25 mg b.i.d. (N = 86), week 1
[2] = 2 x 25 mg b.i.d. (N = 86), week 2
[3] = 2 x 25 mg b.i.d. (N = 86), week 4
[4] = 2 x 25 mg b.i.d. (N = 86), week 8
[5] = 2 x 25 mg b.i.d. (N = 86), week 12
[6] = 2 x 50 mg b.i.d. (N = 85), week 1
[7] = 2 x 50 mg b.i.d. (N = 85), week 2
[8] = 2 x 50 mg b.i.d. (N = 85), week 4
[9] = 2 x 50 mg b.i.d. (N = 85), week 8

In the case of `O=C(Nc1nc2cccc(-c3ccc(CN4CCS(=O)(=O)CC4)cc3)n2n1)C1CC1` [Compound 1, cyclopropanecarboxylic acid {5-[4-(1,1-dioxo-thiomorpholin-4-ylmethyl)-phenyl]-[1,2,4]triazolo[1,5-a]pyridin-2yl}-amide], the “[HDL] Mean CFB - 12 weeks results” value (50 mg q.d. (N = 82), week 1) is reported as 0.02 mmol/L, the “[HDL] Mean percentage CFB - 12 weeks results” value (“[HDL] Mean percentage CFB” for short) (50 mg q.d. (N = 82), week 1) is reported as 2% and the “[HDL] Median CFB - 12 weeks results” value (50 mg q.d. (N = 82), week 1) is reported as 0.01 mmol/L. The “[HDL] Mean CFB - 12 weeks results” value (50 mg q.d. (N = 82), week 2) was 0.08 mmol/L, the “[HDL] Mean percentage CFB” value (50 mg q.d. (N = 82), week 2) was 5% and the “[HDL] Median CFB - 12 weeks results” value (50 mg q.d. (N = 82), week 2) was 0.08 mmol/L. For the same compound, the “[HDL] Mean CFB - 12 weeks results” value (50 mg q.d. (N = 82), week 4) was 0.06 mmol/L, the “[HDL] Mean percentage CFB” value (50 mg q.d. (N = 82), week 4) was 5% and the “[HDL] Median CFB - 12 weeks results” value (50 mg q.d. (N = 82), week 4) was 0.05 mmol/L. For the same compound, the “[HDL] Mean CFB - 12 weeks results” value (50 mg q.d. (N = 82), week 8) was 0.06 mmol/L, the “[HDL] Mean percentage CFB” value (50 mg q.d. (N = 82), week 8) was 6% and the “[HDL] Median CFB - 12 weeks results” value (50 mg q.d. (N = 82), week 8) was 0.10 mmol/L. The “[HDL] Mean CFB - 12 weeks results” value (50 mg q.d. (N = 82), week 12) was 0.06 mmol/L, the “[HDL] Mean percentage CFB” value (50 mg q.d. (N = 82), week 12) was 7% and the “[HDL] Median CFB - 12 weeks results” value (50 mg q.d. (N = 82), week 12) was 0.05 mmol/L. The “[HDL] Mean CFB - 12 weeks results” value (100 mg q.d. (N = 85), week 1) was 0.05 mmol/L, the “[HDL] Mean percentage CFB” value (100 mg q.d. (N = 85), week 1) was 5% and the “[HDL] Median CFB - 12 weeks results” value (100 mg q.d. (N = 85), week 1) was 0.06 mmol/L. The “[HDL] Mean CFB - 12 weeks results” value (100 mg q.d. (N = 85), week 2) was 0.07 mmol/L, the “[HDL] Mean percentage CFB” value (100 mg q.d. (N = 85), week 2) was 7% and the “[HDL] Median CFB - 12 weeks results” value (100 mg q.d. (N = 85), week 2) was 0.07 mmol/L. The “[HDL] Mean CFB - 12 weeks results” value (100 mg q.d. (N = 85), week 4) was 0.11 mmol/L, the “[HDL] Mean percentage CFB” value (100 mg q.d. (N = 85), week 4) was 9% and the “[HDL] Median CFB - 12 weeks results” value (100 mg q.d. (N = 85), week 4) was 0.13 mmol/L. For the same compound, the “[HDL] Mean CFB - 12 weeks results” value (100 mg q.d. (N = 85), week 8) was 0.09 mmol/L, the “[HDL] Mean percentage CFB” value (100 mg q.d. (N = 85), week 8) was 8% and the “[HDL] Median CFB - 12 weeks results” value (100 mg q.d. (N = 85), week 8) was 0.11 mmol/L. For the same compound, the “[HDL] Mean CFB - 12 weeks results” value (100 mg q.d. (N = 85), week 12) was 0.10 mmol/L, the “[HDL] Mean percentage CFB” value (100 mg q.d. (N = 85), week 12) was 8% and the “[HDL] Median CFB - 12 weeks results” value (100 mg q.d. (N = 85), week 12) was 0.10 mmol/L. The “[HDL] Mean CFB - 12 weeks results” value (200 mg q.d. (N = 86), week 1) was 0.11 mmol/L, the “[HDL] Mean percentage CFB” value (200 mg q.d. (N = 86), week 1) was 9% and the “[HDL] Median CFB - 12 weeks results” value (200 mg q.d. (N = 86), week 1) was 0.13 mmol/L. For the same compound, the “[HDL] Mean CFB - 12 weeks results” value (200 mg q.d. (N = 86), week 2) was 0.20 mmol/L, the “[HDL] Mean percentage CFB” value (200 mg q.d. (N = 86), week 2) was 17% and the “[HDL] Median CFB - 12 weeks results” value (200 mg q.d. (N = 86), week 2) was 0.20 mmol/L. For the same compound, the “[HDL] Mean CFB - 12 weeks results” value (200 mg q.d. (N = 86), week 4) was 0.24 mmol/L, the “[HDL] Mean percentage CFB” value (200 mg q.d. (N = 86), week 4) was 20% and the “[HDL] Median CFB - 12 weeks results” value (200 mg q.d. (N = 86), week 4) was 0.25 mmol/L. For the same compound, the “[HDL] Mean CFB - 12 weeks results” value (200 mg q.d. (N = 86), week 8) was 0.29 mmol/L, the “[HDL] Mean percentage CFB” value (200 mg q.d. (N = 86), week 8) was 22% and the “[HDL] Median CFB - 12 weeks results” value (200 mg q.d. (N = 86), week 8) was 0.30 mmol/L. The “[HDL] Mean CFB - 12 weeks results” value (200 mg q.d. (N = 86), week 12) was 0.27 mmol/L, the “[HDL] Mean percentage CFB” value (200 mg q.d. (N = 86), week 12) was 21% and the “[HDL] Median CFB - 12 weeks results” value (200 mg q.d. (N = 86), week 12) was 0.26 mmol/L. The “[HDL] Mean CFB - 12 weeks results” value [1] was 0.00 mmol/L, the “[HDL] Mean percentage CFB” value [1] was 0% and the “[HDL] Median CFB - 12 weeks results” value [1] was 0.00 mmol/L. For the same compound, the “[HDL] Mean CFB - 12 weeks results” value [2] was 0.04 mmol/L, the “[HDL] Mean percentage CFB” value [2] was 4% and the “[HDL] Median CFB - 12 weeks results” value [2] was 0.05 mmol/L. For the same compound, the “[HDL] Mean CFB - 12 weeks results” value [3] was 0.05 mmol/L, the “[HDL] Mean percentage CFB” value [3] was 4% and the “[HDL] Median CFB - 12 weeks results” value [3] was 0.05 mmol/L. The “[HDL] Mean CFB - 12 weeks results” value [4] was 0.06 mmol/L, the “[HDL] Mean percentage CFB” value [4] was 5% and the “[HDL] Median CFB - 12 weeks results” value [4] was 0.10 mmol/L. The “[HDL] Mean CFB - 12 weeks results” value [5] was 0.06 mmol/L, the “[HDL] Mean percentage CFB” value [5] was 6% and the “[HDL] Median CFB - 12 weeks results” value [5] was 0.05 mmol/L. The “[HDL] Mean CFB - 12 weeks results” value [6] was 0.03 mmol/L, the “[HDL] Mean percentage CFB” value [6] was 4% and the “[HDL] Median CFB - 12 weeks results” value [6] was 0.05 mmol/L. The “[HDL] Mean CFB - 12 weeks results” value [7] was 0.12 mmol/L, the “[HDL] Mean percentage CFB” value [7] was 10% and the “[HDL] Median CFB - 12 weeks results” value [7] was 0.10 mmol/L. The “[HDL] Mean CFB - 12 weeks results” value [8] was 0.13 mmol/L, the “[HDL] Mean percentage CFB” value [8] was 12% and the “[HDL] Median CFB - 12 weeks results” value [8] was 0.13 mmol/L. The “[HDL] Mean CFB - 12 weeks results” value [9] was 0.13 mmol/L, the “[HDL] Mean percentage CFB” value [9] was 11% and the “[HDL] Median CFB - 12 weeks results” value [9] was 0.14 mmol/L.
